Series [1] deals with T1, GPR125 (ADGRA3) (Homo sapiens, UniProt Q8IWK6).
T1 sequence (Q8IWK6 34-1321): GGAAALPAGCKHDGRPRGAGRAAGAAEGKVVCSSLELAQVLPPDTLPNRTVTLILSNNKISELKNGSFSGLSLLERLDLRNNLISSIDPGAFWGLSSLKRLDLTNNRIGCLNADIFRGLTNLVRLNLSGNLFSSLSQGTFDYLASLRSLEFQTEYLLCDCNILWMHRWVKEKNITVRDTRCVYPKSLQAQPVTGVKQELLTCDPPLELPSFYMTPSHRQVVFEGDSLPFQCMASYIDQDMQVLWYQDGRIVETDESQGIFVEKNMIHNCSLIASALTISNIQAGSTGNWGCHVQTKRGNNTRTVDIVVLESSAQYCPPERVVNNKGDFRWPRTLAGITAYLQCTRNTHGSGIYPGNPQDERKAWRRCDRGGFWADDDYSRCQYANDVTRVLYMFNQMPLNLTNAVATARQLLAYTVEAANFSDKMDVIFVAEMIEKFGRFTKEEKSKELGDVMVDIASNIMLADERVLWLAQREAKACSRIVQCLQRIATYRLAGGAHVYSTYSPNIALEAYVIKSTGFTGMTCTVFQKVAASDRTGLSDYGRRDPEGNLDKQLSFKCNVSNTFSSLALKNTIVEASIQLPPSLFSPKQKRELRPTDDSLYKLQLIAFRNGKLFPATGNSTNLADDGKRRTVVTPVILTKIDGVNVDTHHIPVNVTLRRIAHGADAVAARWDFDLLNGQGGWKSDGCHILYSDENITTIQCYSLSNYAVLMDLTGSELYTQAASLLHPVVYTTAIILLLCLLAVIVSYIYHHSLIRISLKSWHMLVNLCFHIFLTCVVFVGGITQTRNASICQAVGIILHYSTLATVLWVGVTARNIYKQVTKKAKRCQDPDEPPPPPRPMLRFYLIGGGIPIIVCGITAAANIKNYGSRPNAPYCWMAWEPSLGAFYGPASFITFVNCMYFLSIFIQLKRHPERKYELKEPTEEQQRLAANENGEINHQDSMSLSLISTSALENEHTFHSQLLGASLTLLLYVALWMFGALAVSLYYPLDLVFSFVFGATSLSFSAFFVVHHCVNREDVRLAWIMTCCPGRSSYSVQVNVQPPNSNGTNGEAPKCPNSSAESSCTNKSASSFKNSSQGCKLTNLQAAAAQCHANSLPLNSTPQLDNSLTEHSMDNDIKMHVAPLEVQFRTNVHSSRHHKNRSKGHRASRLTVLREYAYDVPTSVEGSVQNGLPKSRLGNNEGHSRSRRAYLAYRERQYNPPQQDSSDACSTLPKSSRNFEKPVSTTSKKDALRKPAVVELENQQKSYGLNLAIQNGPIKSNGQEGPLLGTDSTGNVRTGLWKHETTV
Description: xCELLigence impedance, MDA231 cells endogenously expressing GPR125. In kind it is cell-based. The conditions noted are these: first 30 minutes after stimulation. As for the experimental part: (§1) Once the cells are added to the E-plate they are allowed to adhere and proliferate for 18 hours during which the impedance is measured every 15 minutes generating the initial adhesion and growth curve. Upon stimulation the measurements are change to rapid detection every 15 seconds followed by every minute and every 5 minutes during the first hour after stimulation.

The target in series [2] is T1, GPR125 (ADGRA3). Description: xCELLigence impedance, HEK293 Flp-In T-rex cells with full length GPR125. In kind it is cell-based. Details: HEK293 Flp-In T-rex cells stably transfected with full length (FL) GPR125; expressed in transfected cells; host or cells: HEK293 Flp-In T-rex cells. The conditions noted are these: HEK293 Flp-In T-rex cells stably transfected with full length (FL) GPR125, first 30 minutes after stimulation. As to the method:
as §1

The test system of series [3] is C57BL/6J mice. Description: Acute food intake in lean mice, SH(2-11)-Exendin-4 (Example 12). The conditions noted are these: 15 nmol/kg s.c., conjugate also vs Exendin-4(1-39). It counts as in vivo, mouse. As for the experimental part: Female C57BL/6J mice were purchased from Charles Rivers. One week before study initiation the mice were single housed with free access to food and water. […] Food intake was measured after 1, 2, 4 and 14 hours (FIG. 16A-D).

Series [4] is described as follows: Plasma and CSF concentrations after injection into vena cava (RIA GLP-1 assay). It counts as in vivo. The conditions noted are these: rat, 10 min after i.v. injection. As for the experimental part:
Male Sprague Dawley rats were purchased from Charles Rivers. Animals were anesthetized by hypnorm/dormicum, and restrained in a stereotactic instrument. […] Blood samples were collected prior to the injection of test compounds and straight after CSF aspiration.
The assay buffer was 100 mM Tris buffer with pH 8.5 containing 1% (wt/vol) human serum albumin, 0.01 mM valine-pyrrolidide and 500 KIE aprotinin (final concentrations). […] Plasma and CSF concentrations were measured after dilution in assay buffer. Free and bound moieties were separated with plasma-coated charcoal.

Series [5] concerns C57BL/6J mice. Description: Acute food intake in lean mice, s.c. (Example 10). It counts as in vivo, mouse. As to the method:
Female C57BL/6J mice were purchased from Charles Rivers. One week before study initiation the mice were single housed with free access to food and water. […] Thirty minutes prior peptide injection, all mice were administered subcutaneously with DDP-4 inhibitor Valine-pyrrolidide (1.5 mg/mouse). Food intake was measured after 1, 2, 4 and 14 hours (FIG. 14A-D).
Results shown are combined data from five studies with an identical study design as described above. Between each study mice had at least one week washout period.

In series [6] the test system is Diet induced obese C57BL/6NTac male mice. Description: Acute food intake in diet induced obese mice, s.c. (Example 11). In kind it is in vivo, mouse. The conditions noted are these: 15 nmol/kg s.c., conjugate also vs GLP-1(7-36). As to the method:
Diet induced obese C57BL/6NTac male mice were purchased from Taconic and continued on a high fat high sucrose diet with free access to water. One week after arrival, animals were double or single housed. […] Thirty minutes prior peptide injection, all mice were administered subcutaneously with DDP-4 inhibitor Valine-pyrrolidide (3 mg/mouse). Food intake was measured after 1, 2, 4 and 14 hours (FIG. 15A-D).

In series [7] the target is T2, GPR125 (ADGRA3) in mouse choroid plexus (mouse, UniProt Q7TT36 28-1310).
T2 construct: whole, on cells
T2 sequence: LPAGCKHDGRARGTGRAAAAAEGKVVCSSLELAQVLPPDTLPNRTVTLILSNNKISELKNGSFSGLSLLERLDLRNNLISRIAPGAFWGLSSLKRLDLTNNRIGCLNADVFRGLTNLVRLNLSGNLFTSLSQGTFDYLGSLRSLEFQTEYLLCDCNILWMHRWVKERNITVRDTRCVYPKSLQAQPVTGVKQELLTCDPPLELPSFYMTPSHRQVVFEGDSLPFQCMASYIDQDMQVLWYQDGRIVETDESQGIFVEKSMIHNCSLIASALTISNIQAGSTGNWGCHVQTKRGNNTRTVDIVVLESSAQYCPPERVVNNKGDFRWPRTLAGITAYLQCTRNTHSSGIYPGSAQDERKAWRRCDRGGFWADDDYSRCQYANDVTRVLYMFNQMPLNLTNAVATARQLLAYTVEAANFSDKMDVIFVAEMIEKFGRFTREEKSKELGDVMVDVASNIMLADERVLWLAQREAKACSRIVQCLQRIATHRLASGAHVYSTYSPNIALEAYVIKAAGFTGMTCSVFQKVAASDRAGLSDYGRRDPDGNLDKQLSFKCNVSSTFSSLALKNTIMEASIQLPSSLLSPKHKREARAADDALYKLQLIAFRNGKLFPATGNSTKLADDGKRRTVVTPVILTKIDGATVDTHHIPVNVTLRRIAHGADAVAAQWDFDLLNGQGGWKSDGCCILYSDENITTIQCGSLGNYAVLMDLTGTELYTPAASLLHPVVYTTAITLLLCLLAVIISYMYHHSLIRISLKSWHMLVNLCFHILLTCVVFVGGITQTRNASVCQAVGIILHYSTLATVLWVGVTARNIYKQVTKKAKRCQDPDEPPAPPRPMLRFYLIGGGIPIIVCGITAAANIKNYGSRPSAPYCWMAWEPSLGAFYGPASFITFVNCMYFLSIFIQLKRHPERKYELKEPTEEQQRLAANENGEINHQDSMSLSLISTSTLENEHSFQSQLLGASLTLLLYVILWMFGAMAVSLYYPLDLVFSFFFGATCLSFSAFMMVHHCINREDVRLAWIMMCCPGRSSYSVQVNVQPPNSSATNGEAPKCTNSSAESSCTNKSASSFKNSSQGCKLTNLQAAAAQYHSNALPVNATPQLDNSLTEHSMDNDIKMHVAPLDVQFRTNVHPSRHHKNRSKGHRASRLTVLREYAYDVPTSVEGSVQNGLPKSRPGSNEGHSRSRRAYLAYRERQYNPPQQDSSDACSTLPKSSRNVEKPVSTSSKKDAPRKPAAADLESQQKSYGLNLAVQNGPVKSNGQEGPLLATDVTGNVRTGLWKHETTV
Description: fluorescence microscopy of mouse brain cryosections, WT against GPR125 KO (KO stained only at 22 µM and 11 µM).

Where no end group is shown, it is not given here.

As to “SH2-9: PAIQPPLY, MuV SH protein fragment (2-9) (Genotype G Genbank ID QFO38283.1 2-9)”, the “GPR125 signaling, area under the curve (AUC) of impedance” value (“GPR125 signaling, area under the curve” for short) in series [1] and in series [2] was “affected GPR125 signaling” in each case.
Turning to “SH1-57: whole mumps virus SH protein 1-57 (MPAIQPPLYLTFLLLILLYLIITLYVWIILTITYKTAVRHAALYQRSFFRWSFDHSL; Genotype G Genbank ID QFO38283.1 1-57; (1)..(57) Genotype G Genbank ID QFO38283.1 1-57)”, the “GPR125 signaling, area under the curve” value in series [1] and in series [2] was “affected GPR125 signaling” each time.
As to “SH1-9: MPAIQPPLY, MuV SH protein fragment (1-9) (Genotype G Genbank ID QFO38283.1 1-9)”, the “GPR125 signaling, area under the curve” value in series [1] and in series [2] was “affected GPR125 signaling” each time.
For the molecule Exendin-4 [Exendin-4(1-39)], the figures for the “food intake compared to vehicle” value in series [3] (after 1 hour), in series [3] (after 2 hours) and in series [3] (after 4 hours) were “decreased food intake”, “decreased food intake” and “less significant”, respectively.
In the case of `CC[C@H](C)[C@H](NC(=O)[C@H](Cc1ccccc1)NC(=O)[C@H](CCC(=O)O)NC(=O)[C@H](CCCCN)NC(=O)[C@H](C)NC(=O)[C@H](C)NC(=O)[C@H](CCC(N)=O)NC(=O)CNC(=O)[C@H](CCC(=O)O)NC(=O)[C@H](CC(C)C)NC(=O)[C@H](Cc1ccc(O)cc1)NC(=O)[C@H](CO)NC(=O)[C@H](CO)NC(=O)[C@@H](NC(=O)[C@H](CC(=O)O)NC(=O)[C@H](CO)NC(=O)[C@@H](NC(=O)[C@H](Cc1ccccc1)NC(=O)[C@@H](NC(=O)CNC(=O)[C@H](CCC(=O)O)NC(=O)[C@H](C)NC(=O)[C@@H](N)Cc1c[nH]cn1)[C@@H](C)O)[C@@H](C)O)C(C)C)C(=O)N[C@@H](C)C(=O)N[C@@H](Cc1c[nH]c2ccccc12)C(=O)N[C@@H](CC(C)C)C(=O)N[C@H](C(=O)N[C@@H](CCCCN)C(=O)NCC(=O)N[C@@H](CCCNC(=N)N)C(N)=O)C(C)C` [GLP-1(7-36), GLP-1 (7-36) amide, reference compound], the “detectable in CSF by RIA GLP-1 assay” value in series [4] is reported as “detectable”. The “food intake compared to vehicle” value in series [5] (15 nmol/kg s.c., after 1 hour) is “did not show a significant decrease”; in series [5] (15 nmol/kg s.c., after 2 hours) it was “did not show a significant decrease”; in series [5] (15 nmol/kg s.c., after 4 hours), “did not show a significant decrease”; in series [5] (15 nmol/kg s.c., after 14 hours), “did not show a significant decrease”; in series [5] (30 nmol/kg s.c., after 1 hour), “decreased their food intake significantly”; in series [5] (30 nmol/kg s.c., after 2 hours), “decreased their food intake significantly”. Also, the “food intake compared to vehicle” value in series [5] (30 nmol/kg s.c., after 4 hours) is listed as “less significant”; in series [6] (after 1 hour), “decreased food intake”; in series [6] (after 2 hours), “decreased food intake”; in series [6] (after 4 hours), “not present”.

B1: TAMRA labelled SH-protein (SEQ ID NO: 129) (other)
chain: MPAIQPPLYLTFLLLILLYLIITLYVWIILTVTYKTAVRHAALYQRSFFHWSFDHSL
modifications: also: TAMRA labelled
notes: also called TAMRA-functionalized SH protein
Consider B1, for which, in series [7], the binding result is “binds”.

Source of the values: patent publication US20240216519A1, “SMALL HYDROPHOBIC PROTEIN DRUG CONJUGATES AND USES THEREOF” (priority 2021, published 2024).
